Results on 5 molecules are retold here after patent EP0029306A1, “Aminoalkyl compounds, their production and pharmaceutical compositions containing them” (GLAXO GROUP LIMITED, priority 1979, dated 1981).

Like-named read-outs stand apart in the source and are kept apart here.

One may read the ED50 as the midpoint of the dose-response relation.

The subject of this experiment is histamine induced gastric acid secretion. Description: Inhibition of histamine induced gastric acid secretion in the perfused rat stomach preparation. The class given is in vivo. Particulars: sodium pentobarbitone anaesthesia.

For the molecule “3-Phenylmethyl-5-[[2-[2-[3-(1-piperidinylmethyl)phenoxy] ethoxy]ethyl]amino]-1H-1,2,4-triazole [Example 4]”, the ED50 is listed as 0.17 mg/kg.
Turning to `Cn1nc(N)nc1NCCCCCOc1cccc(CN2CCCCC2)c1` [1(b), 1-methyl-N^5-[5-[3-(1-piperidinyl-methyl)phenoxy]pentyl]-1H-1,2,4-triazole-3,5-diamine], for the setting “read-out: ED50”, the ED50 was 0.19 mg/kg.
Consider `Cn1nc(CO)nc1NCCCCCOc1cccc(CN2CCCCC2)c1` [2(a)], for which, for the setting “read-out: ED50”, the median effective dose (ED50) amounted to 0.2 mg/kg.
In turn, `CNC(=C[N+](=O)[O-])NCCCCCOc1cccc(CN2CCCCC2)c1` [5(b), N-[5-[3-(1-Piperidinylmethyl)phenoxy]pentyl]-N^1methyl-2-nitro-l,l-ethenediamine] yielded an ED50 of 0.027 mg/kg.
In the case of `CC(=O)Nc1nc(NCCCCCOc2cccc(CN3CCCCC3)c2)n(C)n1` [Example 3], under “read-out: ED50”, the ED50 turned out to be 0.22 mg/kg.
